{
  "source": "patent US20190275003A1",
  "about": "“ENCAPSULATION OF PHOSPHODIESTERASE INHIBITORS TO TREAT ALCOHOLIC LIVER DISEASE” (University of Louisville Research Foundation, Inc., priority 2016, published 2019)",
  "key": {"[1]": {"system": "alcoholic hepatitis", "details": "human clinical studies; cited from earlier work"}, "[2]": {"system": "liver injury and fibrosis", "details": "several animal models; cited from earlier work"}, "[3]": {"system": "mouse aortic endothelial cells (MAECs)", "assay": "Fusion rate of rolipram-loaded vesicles to MAECs", "assay_type": "cell-based", "description": "FIGS. 8A-B show the fusion rate of FLVs-Rolipram to RAW cells and mouse aortic endothelial cells (MAECs) in the presence or absence of excipients in the vehicle. Using fluorescent-labeled FLVs and a Nanoparticle Tracking Analysis instrument to quantify FLV numbers, the fusion rate of vesicles to RAW cells was quantified over time. (A) Lipid vesicles formulated with DOPC/POPA (3:2) loaded with rolipram (DOPC:POPA-R) fused to RAW cells at a faster rate than DOPC vesicles loaded with rolipram (DOPC). […] FLVs=fusogenic lipid vesicles, SOA=Sucrose octaacetate, SAIB=acetate isobutyrate.\nStudies quantifying the fusion rate of vesicles loaded with rolipram to RAW or mouse aortic endothelial cells (MAECs) were performed. In the first experiment, the fusion rate of lipid vesicles to RAW cells using a highly fusogenic vesicle formulated with DOPC/POPA was compared to less fusogenic vesicle formulated with DOPC (FIG. 8A). […] In the second experiment, the fusion rate of FLVs to MAECs using the excipients sucrose octaacetate (SOA) or SAIB and the same vesicle lipid formulations as in the experiment above were performed. […] Also, SOA an excipient used to enhance the stability of FLVs-rolipram during storage appears to augment the fusion rate of FLVs."}, "[4]": {"assay": "Encapsulation efficiency of rolipram in FLVs", "assay_type": "physicochemical", "details": "FLVs 10 mg/mL lipid, rolipram 0.75 mg/mL, diluted 5 or 10 times", "method": "FIGS. 5A-C show the encapsulation efficiency percent of rolipram when 10 (A), 12.5 (B) and 15 mg/mL of FLV lipid (C) was hydrated with buffer containing 0.75 mg/mL of rolipram and diluted in water five or 10 times. The percentage of free rolipram in buffer was calculated by measuring the amount of free drug in buffer after FLVs in solution were filtered out. More than 50% of drug remained encapsulated with either of the dilutions over time. The amount of rolipram associated with FLVs appeared to fluctuate over time but it stabilized at the end of […]. FLVs=fusogenic vesicles.\nAfter dilution the rolipram EE % of FLVs was similar when either excipient or no excipient was utilized. FLVs=fusogenic lipid vesicles, SOA=Sucrose octaacetate, SAIB=acetate isobutyrate.\nTo evaluate the ability of the FLVs to retain rolipram in an aqueous system, 0.75 mg/mL of rolipram was loaded into the lipid bilayer and internal liquid compartment of FLVs using four concentrations of lipid: 5, 10, 12.5, and 15 mg/ml. The rolipram encapsulation efficiency was quantified.\nTo evaluate the effect of dilution on encapsulation efficiency of FLVs-rolipram, different concentrations of FLV lipid (10, 12.5 and 15 mg/ML) were hydrated with the same amount of rolipram (0.75 mg/mL) and then diluted in water 5 and 10 times. Rolipram levels in the external buffer compartment were measured over a 90 min period. […]"}, "[5]": {"system": "TNF", "assay": "LPS mediated TNF expression in ethanol treated cells", "assay_type": "cell-based", "details": "data not shown", "description": "Studies in monocytes have shown that cAMP plays an important role in regulating TNF expression, and that the elevation of cellular cAMP suppresses TNF production. Therefore, the instant inventors evaluated (1) the effects of chronic ethanol exposure on the cellular levels of cAMP, and (2) TNF expression in monocytes in vitro and in rat primary hepatic Kupffer cells obtained from a clinically relevant enteral alcohol feeding model of alcoholic liver disease (ALD). […] Consistent with these decreased cAMP levels, ethanol led to an increase in LPS-inducible TNF mRNA expression (FIG. 2) and TNF protein, without any change in the TNF mRNA stability (data not shown). Enhancement of cellular cAMP with dbcAMP abrogated LPS mediated TNF expression in ethanol treated cells (data not shown)."}, "[6]": {"system": "cholestatic liver injury and fibrosis", "details": "rat, in vivo; cited from earlier work"}, "[7]": {"system": "TNF", "assay": "LPS-stimulated TNF expression in human PBMCs pre-treated with rolipram", "assay_type": "cell-based", "method": "PBMCs isolated from a healthy individual were pre-treated with rolipram (1, 5, and 10 μM) for 30 minutes and further stimulated with LPS (1 μg/ml) for 6 hours. Cell-free supernatants were analyzed for TNF expression by ELISA. Rol=rolipram. TNF=tumor necrosis factor-alpha, FLVs=fusogenic lipid vesicles.\nThe effect of chronic ethanol exposure on PDE4 gene expression and activity in human THP-1 and mouse RAW macrophages was evaluated next, as a mechanism for the decreased intracellular cAMP levels and the increased LPS-stimulated TNF.^4 PDE4 (predominantly present in monocytes) degrades and inactivates cAMP, with PDE4B playing a critical role in LPS signaling. It was shown that chronic alcohol increased LPS-inducible PDE4B mRNA expression (FIG. 2)."}, "[8]": {"system": "α2-adrenoceptor-mediated xylazine/ketamine-induced anesthesia", "assay": "Duration of xylazine/ketamine anesthesia (behavioral correlate of emesis)", "assay_type": "in vivo, male C57BL/6 mice", "details": "free rolipram IV, mean of the 3 groups (1.6, 3.3 and 6.6 mg/kg bw); paired control 75.1±4.7 min", "method": "FLVs-Rol=Fusogenic lipid vesicles-rolipram.\nSafety pharmacology studies were conducted to determine the dose-response relationship of adverse effects observed by rolipram. The primary side effect of rolipram is the inhibition of PDE4 activity in the CNS, which leads to emesis in humans. The mechanism of the emetic response associated with PDE4 inhibitors is thought to produce a pharmacological response analogous to that of presynaptic α2-adrenoceptor inhibition, by elevating intracellular levels of cAMP in noradrenergic neurons. Consequently, PDE4 inhibitors remove an inhibitory mechanism that modulates the release of mediators (5-HT, substance P, noradrenaline) involved in the onset of the emetic reflex. […]\nSince rodents are a non-vomiting species, examining rolipram-induced side effects in rodents is particularly difficult.^34-36 To circumvent this problem, a behavioral correlate of emesis model in mice was utilized.^35 In this model, rolipram is used to reverse the duration of α2-adrenoceptor-mediated xylazine/ketamine-induced anesthesia, which is temporally quantified by the return of the righting reflex. […] After 15 min, the mice were placed on a controlled heating pad in the dorsal recumbent position and the duration of anesthesia was determined by timing the return of the righting reflex. […]"}, "[9]": {"system": "TNF production in RAW 264.7 cells", "assay": "RAW cell assay: LPS-induced TNF production (ELISA)", "assay_type": "cell-based, mouse", "details": "LPS 100 ng/mL 18 h, SAIB 0.5 mg/mL, FLVs 10 mg/mL lipid", "method": "Cells were treated with SAIB (0.5 mg/mL), FLVs (10 mg/mL of lipid) with SAIB (FLV-SAIB) or FLVs-rolipram 0.75 mg/mL (FLV-Rol) without SAIB and stimulated with LPS (100 ng/mL) for 18 h. The effect of SAIB was evaluated by quantifying TNF production using an ELISA kit. SAIB alone appears to exert a beneficial effect, and FLVs with SAIB have a greater beneficial effect. FLVs=fusogenic lipid vesicles, LPS=endotoxin, SAIB=acetate isobutyrate.\nCells were treated with 0.73 mg/mL rolipram (Rol), FLVs only, or 0.73 mg/mL of FLVs-rolipram (FLVs-Rol) and stimulated with LPS (100 ng/mL) for 24 h. Control cells received treatment but no LPS. TNF in media was measured using an ELISA kit. UT=untreated cells, FLVs=fusogenic vesicles, LPS=endotoxin.\nThe effect of adding SAIB (0.5 mg/mL) to the vehicle was tested in vitro using RAW cells pulsed with LPS (100 ng/mL) and evaluated for TNF production. Rolipram (0.75 mg/mL) encapsulated in of 10 mg/mL of lipid without SAIB was used as a control.\nAn in vitro screening assay to evaluate the effectiveness of the FLVs-rolipram formulations was developed. The assay uses a murine macrophage cell line (RAW 264.7 cells), which produces high levels of TNF in response to LPS stimulation. […] After 24 h, TNF protein was measured in cell free supernatant by ELISA kit (FIG. 14)."}},
  "data": [
    {"compound": "CC(=O)CCCCn1c(=O)c2c(ncn2C)n(C)c1=O", "note": "[Pentoxifylline]", "values": [
      {"measurement": "mortality in patients with AH", "setting": "[1]", "result": "decreased mortality"},
      {"measurement": "liver injury and fibrosis", "setting": "[2]", "result": "attenuate liver injury and fibrosis"}
    ]},
    {"compound": "CC(=O)OC[C@H]1O[C@@](COC(C)=O)(O[C@H]2O[C@H](COC(C)=O)[C@@H](OC(C)=O)[C@H](OC(C)=O)[C@H]2OC(C)=O)[C@@H](OC(C)=O)[C@@H]1OC(C)=O", "note": "[SOA, sucrose octaacetate]", "values": [
      {"measurement": "effect of excipient on fusion rate of DOPC/POPA FLVs-rolipram to MAECs", "setting": "[3]", "result": "enhanced the fusion rate"},
      {"measurement": "effect of excipient on rolipram encapsulation efficiency", "setting": "[4]", "result": "did not significantly alter"}
    ]},
    {"compound": "CCCC(=O)Nc1ncnc2c1ncn2[C@@H]1O[C@@H]2COP(=O)(O)O[C@H]2[C@H]1OC(=O)CCC", "note": "[dbcAMP]", "values": [
      {"measurement": "LPS mediated TNF expression", "setting": "[5]", "result": "abrogated"}
    ]},
    {"compound": "COc1ccc(C2CNC(=O)C2)cc1OC1CCCC1", "note": "(stereo not drawn) [rolipram, 4-(3-Cyclopentyloxy-4-methoxy-phenyl) pyrrolidin-2-one]", "values": [
      {"measurement": "protection against cholestatic liver injury and fibrosis", "setting": "[6]", "result": "significant protection"},
      {"measurement": "TNF mRNA", "setting": "[7]; human PBMCs stimulated with LPS, data not shown", "result": "significantly downregulated"},
      {"measurement": "TNF protein", "setting": "[7]; human PBMCs, rolipram 1, 5, 10 μM 30 min, LPS 1 μg/ml 6 h, ELISA, dose-dependent", "result": "significantly downregulated"},
      {"measurement": "mean anesthesia time", "setting": "[8]", "result": "48.6 ± 5.5", "unit": "min"}
    ]},
    {"compound": "sucrose acetate isobutyrate [SAIB]", "values": [
      {"measurement": "effect of excipient on fusion rate of DOPC/POPA FLVs-rolipram to MAECs", "setting": "[3]", "result": "appeared to decrease the fusion rate"},
      {"measurement": "TNF production", "setting": "[9]", "result": "reduced the effect of LPS"},
      {"measurement": "effect of excipient on rolipram encapsulation efficiency", "setting": "[4]", "result": "did not significantly alter"}
    ]}
  ]
}
